Columns and labels:
Assay type in all cases: biochemical
[1] = biological target: T1, FLT3 (Homo sapiens, UniProt P36888); assay: FLT3 kinase assay; settings: ATP 200 μM; FLT3 4.5 nM; Caliper LabChip 3000
T1 sequence (P36888 27-993): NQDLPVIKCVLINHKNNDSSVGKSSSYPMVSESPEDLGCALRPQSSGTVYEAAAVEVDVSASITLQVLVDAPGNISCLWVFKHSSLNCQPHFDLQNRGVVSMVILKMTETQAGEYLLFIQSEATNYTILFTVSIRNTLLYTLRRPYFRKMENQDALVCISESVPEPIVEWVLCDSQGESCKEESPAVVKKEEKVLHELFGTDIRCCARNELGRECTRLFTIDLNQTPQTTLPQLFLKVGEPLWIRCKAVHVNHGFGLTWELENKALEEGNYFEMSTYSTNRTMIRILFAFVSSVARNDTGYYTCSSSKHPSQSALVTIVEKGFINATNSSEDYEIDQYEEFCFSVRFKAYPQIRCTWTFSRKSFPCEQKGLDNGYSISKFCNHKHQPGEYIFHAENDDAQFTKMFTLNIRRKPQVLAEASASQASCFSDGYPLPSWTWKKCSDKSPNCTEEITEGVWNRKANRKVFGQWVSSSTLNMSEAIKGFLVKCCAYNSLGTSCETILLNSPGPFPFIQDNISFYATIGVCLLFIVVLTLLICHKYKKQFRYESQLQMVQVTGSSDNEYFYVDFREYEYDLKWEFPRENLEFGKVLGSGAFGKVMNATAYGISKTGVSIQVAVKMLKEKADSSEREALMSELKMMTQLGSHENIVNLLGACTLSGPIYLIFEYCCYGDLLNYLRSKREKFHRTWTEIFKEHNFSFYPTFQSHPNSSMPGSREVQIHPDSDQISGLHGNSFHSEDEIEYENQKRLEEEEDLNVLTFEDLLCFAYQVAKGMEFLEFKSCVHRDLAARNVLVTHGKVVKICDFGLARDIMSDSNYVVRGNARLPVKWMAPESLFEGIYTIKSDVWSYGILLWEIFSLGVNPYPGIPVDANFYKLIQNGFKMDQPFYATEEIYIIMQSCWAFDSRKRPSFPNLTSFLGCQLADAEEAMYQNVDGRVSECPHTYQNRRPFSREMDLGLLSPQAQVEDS
Protocol: (§1) The assays were performed in U-bottom 384-well plates. The final assay volume was 30 μl prepared from 15 μl additions of enzyme and substrates (fluoresceinated FLT3 substrate peptide and ATP) and test compounds in assay buffer (100 mM HEPES pH 7.4, 10 mM MgCl2, 0.015% Brij35 and 4 mM DTT). The reaction was initiated by the combination of FLT3 with substrates and test compounds. The reaction was incubated at room temperature for 60 min. and terminated by adding 30 μl of 35 mM EDTA to each sample. The reaction mixture was analyzed on the Caliper LabChip 3000 by electrophoretic separation of the fluorescent substrate and phosphorylated product. Inhibition data were calculated by comparison to no enzyme control reactions for 100% inhibition and vehicle-only reactions for 0% inhibition. The final concentration of reagents in the assays is ATP, 200 μM, FL-peptide, 1.5 μM; FLT3, 4.5 nM and DMSO, 1.6%. Dose response curves were generated to determine the concentration required inhibiting 50% of kinase activity (IC50). Compounds were dissolved at 10 mM in dimethylsulfoxide (DMSO) and evaluated at eleven concentrations, each in duplicate. IC50 values were derived by non-linear regression analysis.

[2] = biological target: CDK2E (Homo sapiens, UniProt P24941); assay: CDK 2/Cyclin E Kinase Assay; settings: ATP 30 μM; CDK2E 0.2 nM; Caliper LabChip 3000
Protocol: A. CDK 2/Cyclin E Kinase Assay
as §1, with “(fluoresceinated CDK2E” for “(fluoresceinated FLT3”, “of bacterially expressed, CDK2E” for “of FLT3”, “phosphorylated product” for “phosphorylated product.”, “ATP, 30 μM;” for “ATP, 200 μM,”, “μM; CDK2E, 0.2 nM;” for “μM; FLT3, 4.5 nM”

[3] = biological target: T2, GSK3-β (Homo sapiens, UniProt P49841); assay: GSK3-β kinase assay; settings: ATP 30 μM; His-GSK3B 2.4 nM; Caliper LabChip 3000; read-out: GSK-3β IC50
T2 construct: His
Protocol: (§2) The assays were performed in U-bottom 384-well plates. The final assay volume was 30 μl prepared from 15 μl additions of enzyme and substrates (fluoresceinated peptide FL-GSK substrate and ATP) and test compounds in assay buffer (100 mM HEPES pH 7.2, 10 mM MgCl2, 0.015% Brij35, 25 mM β-glycerolphosphate and 4 mM DTT). The reaction was initiated by the combination of GSK3-β with substrates and test compounds. The reaction was incubated at room temperature for 60 min. and terminated by adding 30 μl of 35 mM EDTA to each sample. The reaction mixture was analyzed on the Caliper LabChip 3000 (Caliper, Hopkinton, Mass.) by electrophoretic separation of the fluorescent substrate and phosphorylated product Inhibition data were calculated by comparison to no enzyme control reactions for 100% inhibition and vehicle-only reactions for 0% inhibition. The final concentration of reagents in the assays is ATP, 30 μM; FL-GSK substrate, 1.5 μM; His-GSK3B, 2.4 nM; and DMSO, 1.6%.

[4] = biological target: GST-Met (Homo sapiens, UniProt P08581); assay: Met Kinase Assay; settings: 1 μM ATP; 33P γ-ATP, poly(Glu/Tyr); 1 h at 30° C.
Protocol: Kinase reactions consisted of 0.75 ng of baculovirus expressed GST-Met, 3 ug poly(Glu/Tyr) (Sigma), 0.12 μCi 33P γ-ATP, 1 μM ATP in 30 μl kinase buffer (20 mm TRIS-C1, 5 mM MnCl2, 0.1 mg/ml BSA, 0.5 mM DTT). Reactions were incubated for 1 h at 30° C. and stopped by the addition of cold trichloroacetic acid (TCA) to a final concentration 8%. TCA precipitates were collected onto GF/C unifilter plates using a Filtermate universal harvester and the filters were quantitated using a TopCount 96-well liquid scintillation counter. Dose response curves were generated to determine the concentration required to inhibit 50% of kinase activity (IC50). Compounds were dissolved at 10 mM in dimethylsulfoxide (DMSO) and evaluated at seven concentrations, each in triplicate.

[5] = biological target: IGF1-receptor (Homo sapiens, UniProt P08069); assay: IGF1-Receptor Tyrosine Kinase Assay; settings: ATP 25 μM; IGF1-Receptor 14 nM; Caliper LabChip 3000; read-out: IGF1R IC50
Protocol: D. IGF1-Receptor Tyrosine Kinase Assay
as §1, with “(fluoresceinated IGF1R” for “(fluoresceinated FLT3”, “mM MnCl2,” for “mM MgCl2,”, “of IGF1-receptor” for “of FLT3”, “ATP, 25 μM;” for “ATP, 200 μM,”, “μM; IGF1-Receptor, 14 nM;” for “μM; FLT3, 4.5 nM”, “regression analysis” for “regression analysis.”

[6] = biological target: JAK2 (Homo sapiens, UniProt O60674); assay: JAK2 kinase assay; settings: ATP 30 μM; activated JAK2; Caliper LabChip 3000
Protocol: as §2, with “FL-JAK2” for “FL-GSK”, “activated JAK2” for “GSK3-β”, “product.” for “product”, “FL-JAK2 peptide,” for “FL-GSK substrate,”, “[…], 2.6” for “His-GSK3B, 2.4”

T2 sequence (P49841 whole entry): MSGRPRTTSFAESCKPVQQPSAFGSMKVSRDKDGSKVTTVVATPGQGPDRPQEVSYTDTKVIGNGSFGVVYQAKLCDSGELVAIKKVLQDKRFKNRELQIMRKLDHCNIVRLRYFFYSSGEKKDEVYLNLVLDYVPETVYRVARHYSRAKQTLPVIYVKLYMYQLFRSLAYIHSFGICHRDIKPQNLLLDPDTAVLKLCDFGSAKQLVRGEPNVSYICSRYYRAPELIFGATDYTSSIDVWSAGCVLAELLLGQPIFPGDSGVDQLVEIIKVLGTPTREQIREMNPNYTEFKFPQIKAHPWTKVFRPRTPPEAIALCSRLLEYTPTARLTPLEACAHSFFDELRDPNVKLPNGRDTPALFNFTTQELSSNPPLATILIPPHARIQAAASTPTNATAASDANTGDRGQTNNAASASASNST
GST-Met, sequence (P08581 25-1390): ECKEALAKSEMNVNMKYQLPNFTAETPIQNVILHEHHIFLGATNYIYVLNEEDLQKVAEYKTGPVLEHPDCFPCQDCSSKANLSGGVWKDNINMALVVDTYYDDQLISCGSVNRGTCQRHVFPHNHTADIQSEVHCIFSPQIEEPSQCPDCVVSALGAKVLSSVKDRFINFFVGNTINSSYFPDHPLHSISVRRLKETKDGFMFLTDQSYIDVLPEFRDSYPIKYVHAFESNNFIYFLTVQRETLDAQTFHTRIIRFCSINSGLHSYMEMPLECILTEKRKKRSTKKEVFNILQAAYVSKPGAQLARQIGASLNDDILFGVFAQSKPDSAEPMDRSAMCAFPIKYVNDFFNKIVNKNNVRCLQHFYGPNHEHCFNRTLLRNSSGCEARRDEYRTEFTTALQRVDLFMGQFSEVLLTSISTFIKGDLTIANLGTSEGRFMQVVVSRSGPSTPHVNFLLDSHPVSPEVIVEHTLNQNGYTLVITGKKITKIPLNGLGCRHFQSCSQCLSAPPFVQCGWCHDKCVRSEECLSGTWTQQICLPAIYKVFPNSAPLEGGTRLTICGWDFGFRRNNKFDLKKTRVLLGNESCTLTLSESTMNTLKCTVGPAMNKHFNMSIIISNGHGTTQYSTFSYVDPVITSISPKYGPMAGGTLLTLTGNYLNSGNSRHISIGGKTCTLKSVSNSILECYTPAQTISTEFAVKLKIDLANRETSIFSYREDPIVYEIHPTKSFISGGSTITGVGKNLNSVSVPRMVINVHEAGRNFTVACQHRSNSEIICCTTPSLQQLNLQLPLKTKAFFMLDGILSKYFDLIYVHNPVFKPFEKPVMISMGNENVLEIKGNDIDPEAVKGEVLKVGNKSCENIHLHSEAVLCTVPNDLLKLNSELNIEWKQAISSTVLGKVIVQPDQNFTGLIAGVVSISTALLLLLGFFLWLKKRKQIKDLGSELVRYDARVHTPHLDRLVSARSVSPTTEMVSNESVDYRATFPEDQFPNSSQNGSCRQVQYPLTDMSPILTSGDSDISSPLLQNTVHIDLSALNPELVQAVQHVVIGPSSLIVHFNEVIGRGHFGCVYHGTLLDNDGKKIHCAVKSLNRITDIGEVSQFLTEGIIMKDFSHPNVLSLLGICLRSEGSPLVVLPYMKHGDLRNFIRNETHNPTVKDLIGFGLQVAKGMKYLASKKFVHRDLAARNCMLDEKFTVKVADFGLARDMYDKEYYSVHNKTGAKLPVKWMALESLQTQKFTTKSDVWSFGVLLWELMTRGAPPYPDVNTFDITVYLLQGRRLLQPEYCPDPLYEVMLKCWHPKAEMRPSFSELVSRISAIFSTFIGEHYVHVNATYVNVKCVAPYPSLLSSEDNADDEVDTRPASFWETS
IGF1-receptor, sequence (P08069 31-1367): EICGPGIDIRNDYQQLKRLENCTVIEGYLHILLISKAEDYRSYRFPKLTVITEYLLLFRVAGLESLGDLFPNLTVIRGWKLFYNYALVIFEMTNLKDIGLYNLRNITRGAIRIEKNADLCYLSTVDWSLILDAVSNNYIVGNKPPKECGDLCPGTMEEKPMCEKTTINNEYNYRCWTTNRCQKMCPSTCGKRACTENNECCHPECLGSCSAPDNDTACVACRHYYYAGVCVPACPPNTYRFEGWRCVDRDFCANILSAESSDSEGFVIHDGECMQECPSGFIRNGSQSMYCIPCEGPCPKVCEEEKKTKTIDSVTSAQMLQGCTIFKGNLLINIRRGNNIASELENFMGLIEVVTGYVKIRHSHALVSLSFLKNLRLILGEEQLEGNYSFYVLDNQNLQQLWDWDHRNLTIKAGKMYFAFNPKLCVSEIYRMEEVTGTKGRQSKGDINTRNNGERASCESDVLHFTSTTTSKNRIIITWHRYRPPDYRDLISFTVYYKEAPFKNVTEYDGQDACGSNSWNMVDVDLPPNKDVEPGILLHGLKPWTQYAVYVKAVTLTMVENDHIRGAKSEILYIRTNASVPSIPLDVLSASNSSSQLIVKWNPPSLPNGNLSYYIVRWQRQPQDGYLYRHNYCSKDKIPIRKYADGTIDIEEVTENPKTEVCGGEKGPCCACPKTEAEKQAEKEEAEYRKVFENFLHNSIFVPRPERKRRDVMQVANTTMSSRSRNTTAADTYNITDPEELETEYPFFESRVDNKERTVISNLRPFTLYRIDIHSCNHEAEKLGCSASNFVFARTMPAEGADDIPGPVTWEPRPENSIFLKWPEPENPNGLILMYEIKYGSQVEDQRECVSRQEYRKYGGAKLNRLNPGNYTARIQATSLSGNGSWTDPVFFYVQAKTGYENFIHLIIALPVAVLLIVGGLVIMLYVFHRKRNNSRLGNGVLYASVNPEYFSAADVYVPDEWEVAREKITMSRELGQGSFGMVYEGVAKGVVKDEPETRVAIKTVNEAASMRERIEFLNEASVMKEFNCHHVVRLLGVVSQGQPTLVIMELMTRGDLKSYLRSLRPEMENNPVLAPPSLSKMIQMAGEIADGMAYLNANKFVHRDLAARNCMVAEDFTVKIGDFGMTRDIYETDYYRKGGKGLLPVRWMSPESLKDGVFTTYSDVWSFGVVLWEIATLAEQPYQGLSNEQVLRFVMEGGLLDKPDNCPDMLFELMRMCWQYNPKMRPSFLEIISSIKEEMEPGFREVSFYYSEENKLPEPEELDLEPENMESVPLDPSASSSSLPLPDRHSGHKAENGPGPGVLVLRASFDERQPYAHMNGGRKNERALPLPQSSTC
JAK2, sequence (O60674 whole entry): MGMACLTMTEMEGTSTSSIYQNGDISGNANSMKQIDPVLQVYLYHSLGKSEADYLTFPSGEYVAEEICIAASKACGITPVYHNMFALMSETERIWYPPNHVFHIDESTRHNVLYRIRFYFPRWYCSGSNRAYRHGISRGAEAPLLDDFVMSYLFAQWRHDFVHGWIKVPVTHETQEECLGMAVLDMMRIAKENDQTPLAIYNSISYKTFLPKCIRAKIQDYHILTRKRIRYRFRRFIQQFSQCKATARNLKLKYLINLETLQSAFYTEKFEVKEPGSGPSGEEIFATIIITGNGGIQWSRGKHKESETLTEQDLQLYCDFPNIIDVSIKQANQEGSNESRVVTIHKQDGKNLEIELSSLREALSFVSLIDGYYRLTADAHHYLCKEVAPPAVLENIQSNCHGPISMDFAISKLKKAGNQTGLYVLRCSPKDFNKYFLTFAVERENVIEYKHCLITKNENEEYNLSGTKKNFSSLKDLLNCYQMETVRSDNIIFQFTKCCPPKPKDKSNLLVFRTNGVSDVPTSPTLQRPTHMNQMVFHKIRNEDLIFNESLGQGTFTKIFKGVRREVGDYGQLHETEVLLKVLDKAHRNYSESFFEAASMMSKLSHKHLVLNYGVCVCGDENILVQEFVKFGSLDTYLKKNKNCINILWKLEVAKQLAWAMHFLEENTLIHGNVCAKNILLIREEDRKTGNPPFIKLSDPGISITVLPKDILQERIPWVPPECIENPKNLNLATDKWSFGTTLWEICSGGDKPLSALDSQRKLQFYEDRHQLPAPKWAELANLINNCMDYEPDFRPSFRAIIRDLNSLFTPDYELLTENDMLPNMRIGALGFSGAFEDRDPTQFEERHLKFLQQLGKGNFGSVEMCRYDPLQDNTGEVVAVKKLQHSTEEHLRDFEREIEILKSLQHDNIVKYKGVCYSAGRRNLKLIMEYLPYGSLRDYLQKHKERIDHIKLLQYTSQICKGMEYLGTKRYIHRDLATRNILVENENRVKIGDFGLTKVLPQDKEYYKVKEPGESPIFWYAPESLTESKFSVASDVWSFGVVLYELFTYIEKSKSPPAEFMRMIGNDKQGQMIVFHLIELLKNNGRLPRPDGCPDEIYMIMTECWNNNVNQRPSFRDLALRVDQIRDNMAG

Row | SMILES | IC50 [1] | IC50 [2] | IC50 [3] | IC50 [4] | IC50 [5] | IC50 [6]
1 | O=C(c1ccc(F)nc1)N1CCC[C@H]1c1nc(Nc2cc(C3CC3)[nH]n2)c2cccn2n1 [Example 1, (S)-(2-(4-(5-Cyclopropyl-1H-pyrazol-3-ylamino)pyrrolo[1,2-f][1,2,4]triazin-2-yl)pyrrolidin-1-yl)(6-fluoropyridin-3-yl)methanone] | 29 nM | 1870 nM | 290 nM | 28 nM | – | –
2 | O=C(c1nccs1)N1CCC[C@H]1c1nc(Nc2cc(C3CC3)[nH]n2)c2cccn2n1 [Example 2, (S)-(2-(4-(5-Cyclopropyl-1H-pyrazol-3-ylamino)pyrrolo[1,2-f][1,2,4]triazin-2-yl)pyrrolidin-1-yl)(thiazol-2-yl)methanone] | 1 nM | 88 nM | 24 nM | 170 nM | 5 nM | –
3 | CC(=O)N1CCC[C@H]1c1nc(Nc2cc(C3CC3)[nH]n2)c2cccn2n1 [Example 4, (S)-1-(2-(4-(5-Cyclopropyl-1H-pyrazol-3-ylamino)pyrrolo[1,2-f][1,2,4]-triazin-2-yl)pyrrolidin-1-yl)ethanone] | 1 nM | 5 nM | 20 nM | 1780 nM | 135 nM | –
4 | O=C(C1CCNCC1)N1CCC[C@H]1c1nc(Nc2cc(C3CC3)[nH]n2)c2cccn2n1 [Example 6, (S)-(2-(4-(5-Cyclopropyl-1H-pyrazol-3-ylamino)pyrrolo[1,2-f][1,2,4]triazin-2-yl)pyrrolidin-1-yl)(piperidin-4-yl)methanone] | 97 nM | 615 nM | 92 nM | 10500 nM | 4050 nM | 10700 nM
5 | O=C(c1cc[nH]n1)N1CCC[C@H]1c1nc(Nc2cc(C3CC3)[nH]n2)c2cccn2n1 [Example 7, (S)-(2-(4-(5-Cyclopropyl-1H-pyrazol-3-ylamino)pyrrolo[1,2-f][1,2,4]triazin-2-yl)pyrrolidin-1-yl)(1H-pyrazol-3-yl)methanone] | 4 nM | 54 nM | 51 nM | 1170 nM | 68 nM | 36 nM

More lines, now with the values ahead:

Row | IC50 [1] | IC50 [2] | IC50 [3] | IC50 [4] | IC50 [5] | IC50 [6] | SMILES
6 | 6 nM | 256 nM | 3 nM | 10800 nM | 4930 nM | 4480 nM | O=C(c1cnccn1)N1CCC[C@@H]1c1nc(Nc2cc(C3CC3)[nH]n2)c2cccn2n1 [Example 12, (R)-(2-(4-(5-Cyclopropyl-1H-pyrazol-3-ylamino)pyrrolo[1,2-f][1,2,4]triazin-2-yl)pyrrolidin-1-yl)(pyrazin-2-yl)methanone]
7 | 308 nM | 17400 nM | 4450 nM | – | 314 nM | 22000 nM | CC(C)(C)OC(=O)N1CCC(C(=O)N2CCC[C@@H]2c2nc(Nc3cc(C4CC4)[nH]n3)c3cccn3n2)CC1 [Example 13, (R)-tert-Butyl 4-(2-(4-(5-cyclopropyl-1H-pyrazol-3-ylamino)pyrrolo[1,2-f][1,2,4]triazin-2-yl)pyrrolidine-1-carbonyl)piperidine-1-carboxylate]
8 | 24 nM | 162 nM | 11 nM | 6330 nM | 2520 nM | 324 nM | O=C(c1nccs1)N1CCC[C@@H]1c1nc(Nc2cc(C3CC3)[nH]n2)c2cccn2n1 [Example 15, (R)-(2-(4-(5-Cyclopropyl-1H-pyrazol-3-ylamino)pyrrolo[1,2-f][1,2,4]triazin-2-yl)pyrrolidin-1-yl)(thiazol-2-yl)methanone]

Reference: patent publication US8198438B2, “Pyrrolotriazine kinase inhibitors” (Bristol-Myers Squibb Company, priority 2007, dated 2012)
